In data set [1] the target is BRD4(1) (Homo sapiens, UniProt O60885). Description: BROMOscan bromoKdELECT. The following applies: commercial Bromoscan assay. It is filed as binding. On the procedure: (§1) was used as the calibration curve. To obtain saturated solutions of the compounds of interest, in duplicates 4.4 µL of a 10 or 5 mM stock in DMSO was added to 436 µL Buffer (PBS, pH = 7.4), to give a final concentration of 100 or 50 µM. Samples were incubated on a shaker (500 rpm) at 37°C for 90 minutes and then filtered (Millex-GV 13 mm, 0.22 µm). 304 µL of the filtrate was mixed with 76 µL of acetonitrile on a dilution plate, from which 350 µL was transferred to a UV-plate and UV-absorption was read using a SpectraMax M5 (Molecular devices). The absorbance was blank-corrected and compared to the calibration curve to […]
(§2) solubility. The wavelengths used for the calibration curve are available in Table S4.
Sample preparation in CAPTISOL® […]
lower solubility (2) compounds respectively in a 12.5 w/v% CAPTISOL® solution in water. In a precisely tared vial, required amounts of compounds and CAPTISOL® were weighed out as solids. Based on the known density of 12.5 % CAPTISOL® solution (d = 1.05755 g/mL at 25 °C), the precise weight of the resulting solution and so the required amount of water by weight was calculated. The water was added portion wise with agitation, vortexing and sonication cycles in between additions. The saturated solutions were then filtered (Millex-GV 13 mm, 0.22 µm). In duplicates, aliquots of the filtrates were taken and diluted with blank 12.5 % CAPTISOL® water solution in either a 1:14 (higher sol. compounds) or 1:7 (lower sol. compounds) ratio, 350 µL was transferred to a 96-Well Plate (Greiner, UV-star) then UV absorption (240-400 nm, 10 nm steps) was measured using a SpectraMax M5 (Molecular devices). […] The calculated concentrations are available in Table S4. […]
The bromodomain concentration in the eluates was measured by qPCR.
Test compounds were prepared as 1000X stocks in DMSO and distributed by acoustic transfer (non-contact dispensing). […] KDs were determined using an 11-point 3-fold compound dilution series with one DMSO control point, and were calculated with a standard dose-response curve using the Hill equation: […]

The nature of data set [2]: kinetic solubility. It counts as physicochemical. Particulars: PBS buffer, aqueous buffer, kinetic from dmso stock, PBS pH 7.4, 37°C, ± st. dev. between technical replicates, read-out: Kin. Sol. On the procedure: Starting from an initial concentration of 100, 50 or 20 µM, a 2-fold serial dilution of the compound (10 mM stock in DMSO) was prepared in a mixture of ACN/Buffer (PBS, pH = 7.4) 2:8, with 1% DMSO. 350 µL was transferred to a 96-Well Plate (Greiner, UV-star) then UV absorption (240-400 nm, 10 nm steps) was measured. The absorption was blank-corrected and plotted against concentration. The wavelength (λ) providing the best fitting straight line […]
as §1, §2
Based on the known density of 12.5 % CAPTISOL® solution (d = 1.05755 g/mL at 25 °C), the precise weight of the resulting solution and so the required amount of water by weight was calculated. The water was added portion wise with agitation, vortexing and sonication cycles in between additions. The saturated solutions were then filtered (Millex-GV 13 mm, 0.22 µm). In duplicates, aliquots of the filtrates were taken and diluted with blank 12.5 % CAPTISOL® water solution in either a 1:14 (higher sol. compounds) or 1:7 (lower sol. compounds) ratio, 350 µL was transferred to a 96-Well Plate (Greiner, UV-star) then UV absorption (240-400 nm, 10 nm steps) was measured using a SpectraMax M5 (Molecular devices). The absorption was blank-corrected, compared to the calibration curve obtained during the solubility measurement method above and finally corrected for the dilution ratio to obtain the compound concentration in the saturated 12.5 % CAPTISOL® solution. The calculated concentrations are available in Table S4.
BROMOscan™ assays (provided by Eurofins DiscoverX, US)1,2 […]
coli host derived from the BL21 strain. E. coli were grown to log-phase and infected with T7 phage from a frozen stock (multiplicity of infection = 0.4) and incubated with shaking at 32°C until lysis (90-150 minutes). The lysates were centrifuged (5,000 x g) and filtered (0.2µm) to remove cell debris. Streptavidin-coated magnetic beads were treated with biotinylated small molecule or acetylated peptide ligands for 30 minutes at room temperature to generate affinity resins for bromodomain assays. The liganded beads were blocked with excess biotin and washed with blocking buffer (SeaBlock (Pierce), 1 % BSA, 0.05 % Tween 20, 1 mM DTT) to remove unbound ligand and to reduce non specific phage binding. Binding reactions were assembled by combining bromodomains, liganded affinity beads, and test compounds (see […]
Sodium azide, 7.4 mM DTT). All reactions were performed in polypropylene 384-well plates in a final volume of 0.02 mL. The assay plates were incubated at room temperature with […]
20). The beads were then resuspended in elution buffer (1x PBS, 0.05% Tween 20, 2 µM non-

SMILES strings stand for the structures. In brackets after ≈: the same amount, converted by molar mass.

A word on the Kd: it is the constant that tells how readily two partners part at equilibrium. A higher Kd goes with weaker binding. Consider `CC(=O)Nc1cc(NC(=O)c2ccco2)cc(C(=O)Nc2cccc3nnc(C)cc23)c1` [Compound 1], for which, in data set [1], binding was put at a Kd of 5.8 µM. Further, the solubility kinetic at 90 min in data set [2] turned out to be 22.2 ± 1.3 µM (≈ 9.53 µg/mL).

For the compound `Cc1cc2c(NC(=O)c3cc(NC(=O)c4ccco4)cc(-c4ccn(C)n4)c3)cccc2nn1` [Compound 2], the Kd in data set [1] amounted to 3.7 µM. Also, the solubility kinetic at 90 min in data set [2] came out at 3.2 ± 1.3 µM (≈ 1.45 µg/mL).

In data set [1], `Cc1cc2c(NC(=O)c3cc(NC(=O)[C@H]4CCCO4)cc(-c4ccn(C)n4)c3)cccc2nn1` [Compound 5] returned a Kd of 5.1 µM. Moreover, the solubility kinetic at 90 min in data set [2] stood at 69.7 ± 0.6 µM (≈ 31.8 µg/mL).
